ChEMBL document CHEMBL3745631, “Discovery of highly potent and selective Bruton's tyrosine kinase inhibitors: Pyridazinone analogs with improved metabolic stability” (Bioorg Med Chem Lett, 2016)

How the values were obtained:
[1] = target: Dual specificity tyrosine-phosphorylation-regulated kinase 4 (Homo sapiens) (UniProt Q9NR20); assay: Inhibition of DYRK4 (unknown origin) at 1 uM
[2] = target: Tyrosine-protein kinase ITK/TSK (Homo sapiens) (UniProt Q08881); assay: Inhibition of ITK (unknown origin) at 1 uM
[3] = target: Dual specificity mitogen-activated protein kinase kinase 3 (Homo sapiens) (UniProt P46734); assay: Inhibition of MEK3 (unknown origin) at 1 uM
[4] = target: Tyrosine-protein kinase HCK (Homo sapiens) (UniProt P08631); assay: Inhibition of Hck (unknown origin) at 1 uM
[5] = target: Dual specificity protein kinase CLK3 (Homo sapiens) (UniProt P49761); assay: Inhibition of CLK3 (unknown origin) at 1 uM
[6] = target: Interleukin-1 receptor-associated kinase 1 (Homo sapiens) (UniProt P51617); assay: Inhibition of IRAK1 (unknown origin) at 1 uM
Interleukin-1 receptor-associated kinase 1 (Homo sapiens), sequence (P51617 whole entry, looked up): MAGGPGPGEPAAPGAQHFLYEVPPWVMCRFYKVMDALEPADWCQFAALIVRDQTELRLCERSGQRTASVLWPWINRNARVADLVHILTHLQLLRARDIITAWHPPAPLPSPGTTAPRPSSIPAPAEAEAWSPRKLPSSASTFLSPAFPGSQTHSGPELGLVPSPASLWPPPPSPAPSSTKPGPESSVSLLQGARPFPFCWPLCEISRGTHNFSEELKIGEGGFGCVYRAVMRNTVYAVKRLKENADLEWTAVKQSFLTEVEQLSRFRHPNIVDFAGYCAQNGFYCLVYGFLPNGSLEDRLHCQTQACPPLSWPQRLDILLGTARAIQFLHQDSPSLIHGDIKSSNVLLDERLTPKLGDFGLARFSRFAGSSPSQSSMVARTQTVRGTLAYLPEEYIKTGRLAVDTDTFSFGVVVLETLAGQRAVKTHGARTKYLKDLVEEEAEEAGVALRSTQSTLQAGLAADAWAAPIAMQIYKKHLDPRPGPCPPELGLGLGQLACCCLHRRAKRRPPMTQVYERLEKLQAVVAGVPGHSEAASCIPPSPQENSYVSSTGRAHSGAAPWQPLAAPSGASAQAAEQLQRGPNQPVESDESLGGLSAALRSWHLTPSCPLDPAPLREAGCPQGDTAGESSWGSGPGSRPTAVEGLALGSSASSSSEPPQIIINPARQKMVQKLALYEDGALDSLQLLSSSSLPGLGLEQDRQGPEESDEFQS

[7] = target: Calcium/calmodulin-dependent protein kinase kinase 1 (Homo sapiens) (UniProt Q8N5S9); assay: Inhibition of CAMKK1 (unknown origin) at 1 uM
Calcium/calmodulin-dependent protein kinase kinase 1 (Homo sapiens), sequence (Q8N5S9 whole entry, looked up): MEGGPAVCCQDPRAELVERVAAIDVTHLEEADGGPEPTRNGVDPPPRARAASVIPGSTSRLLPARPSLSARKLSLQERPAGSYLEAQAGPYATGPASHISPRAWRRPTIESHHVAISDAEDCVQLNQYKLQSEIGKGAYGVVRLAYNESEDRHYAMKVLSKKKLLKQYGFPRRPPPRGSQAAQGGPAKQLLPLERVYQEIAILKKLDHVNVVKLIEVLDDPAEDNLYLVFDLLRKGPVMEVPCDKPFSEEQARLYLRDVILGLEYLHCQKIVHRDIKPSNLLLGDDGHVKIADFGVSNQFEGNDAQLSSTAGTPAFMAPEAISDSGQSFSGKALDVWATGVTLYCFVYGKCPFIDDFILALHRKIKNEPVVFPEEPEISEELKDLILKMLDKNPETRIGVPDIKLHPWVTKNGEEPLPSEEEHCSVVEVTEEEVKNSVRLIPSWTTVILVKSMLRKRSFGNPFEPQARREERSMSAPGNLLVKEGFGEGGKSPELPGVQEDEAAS

[8] = target: SRSF protein kinase 1 (Homo sapiens) (UniProt Q96SB4); assay: Inhibition of SRPK1 (unknown origin) at 1 uM
[9] = target: Homeodomain-interacting protein kinase 1 (Homo sapiens) (UniProt Q86Z02); assay: Inhibition of HIPK1 (unknown origin) at 1 uM
[10] = target: Death-associated protein kinase 3 (Homo sapiens) (UniProt O43293); assay: Inhibition of ZIPK (unknown origin) at 1 uM
[11] = target: Dual specificity mitogen-activated protein kinase kinase 1 (Homo sapiens) (UniProt Q02750); assay: Inhibition of MEK1 (unknown origin) at 1 uM
[12] = target: Ephrin type-A receptor 3 (Homo sapiens) (UniProt P29320); assay: Inhibition of EphA3 (unknown origin) at 1 uM
[13] = target: Ephrin type-A receptor 7 (Homo sapiens) (UniProt Q15375); assay: Inhibition of EphA7 (unknown origin) at 1 uM
[14] = target: G protein-coupled receptor kinase 3 (Homo sapiens) (UniProt P35626); assay: Inhibition of GRK3 (unknown origin) at 1 uM
[15] = target: Mitogen-activated protein kinase kinase kinase 5 (Homo sapiens) (UniProt Q99683); assay: Inhibition of ASK1 (unknown origin) at 1 uM
[16] = target: Insulin-like growth factor 1 receptor (Homo sapiens) (UniProt P08069); assay: Inhibition of IGF1R (unknown origin) at 1 uM
[17] = target: SRSF protein kinase 3 (Homo sapiens) (UniProt Q9UPE1); assay: Inhibition of MSSK1 (unknown origin) at 1 uM
[18] = target: Ephrin type-A receptor 8 (Homo sapiens) (UniProt P29322); assay: Inhibition of EphA8 (unknown origin) at 1 uM
[19] = target: Serine/threonine-protein kinase 24 (Homo sapiens) (UniProt Q9Y6E0); assay: Inhibition of MST3 (unknown origin) at 1 uM
Serine/threonine-protein kinase 24 (Homo sapiens), sequence (Q9Y6E0 whole entry, looked up): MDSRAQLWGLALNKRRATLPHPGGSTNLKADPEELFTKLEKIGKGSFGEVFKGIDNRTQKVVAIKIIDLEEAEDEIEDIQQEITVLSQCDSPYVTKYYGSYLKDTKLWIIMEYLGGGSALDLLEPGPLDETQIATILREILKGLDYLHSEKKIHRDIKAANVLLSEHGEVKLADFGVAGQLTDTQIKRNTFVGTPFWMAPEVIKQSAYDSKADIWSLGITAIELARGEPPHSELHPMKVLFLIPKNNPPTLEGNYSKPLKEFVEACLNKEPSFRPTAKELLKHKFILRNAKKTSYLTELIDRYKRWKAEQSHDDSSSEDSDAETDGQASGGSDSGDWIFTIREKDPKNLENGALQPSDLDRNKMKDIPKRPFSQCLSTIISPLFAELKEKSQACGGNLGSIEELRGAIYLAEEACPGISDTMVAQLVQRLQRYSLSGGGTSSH

[20] = target: Calcium/calmodulin-dependent protein kinase type II subunit beta (Homo sapiens) (UniProt Q13554); assay: Inhibition of CaMK2 beta (unknown origin) at 1 uM
Canis familiaris = assay: Clearance in dog at 1 mg/kg, iv by LC-MS/MS analysis; format: ADME, organism-based, Canis lupus familiaris; details: in vivo
[21] = target: Serine/threonine-protein kinase 17A (Homo sapiens) (UniProt Q9UEE5); assay: Inhibition of DRAK1 (unknown origin) at 1 uM
Serine/threonine-protein kinase 17A (Homo sapiens), sequence (Q9UEE5 whole entry): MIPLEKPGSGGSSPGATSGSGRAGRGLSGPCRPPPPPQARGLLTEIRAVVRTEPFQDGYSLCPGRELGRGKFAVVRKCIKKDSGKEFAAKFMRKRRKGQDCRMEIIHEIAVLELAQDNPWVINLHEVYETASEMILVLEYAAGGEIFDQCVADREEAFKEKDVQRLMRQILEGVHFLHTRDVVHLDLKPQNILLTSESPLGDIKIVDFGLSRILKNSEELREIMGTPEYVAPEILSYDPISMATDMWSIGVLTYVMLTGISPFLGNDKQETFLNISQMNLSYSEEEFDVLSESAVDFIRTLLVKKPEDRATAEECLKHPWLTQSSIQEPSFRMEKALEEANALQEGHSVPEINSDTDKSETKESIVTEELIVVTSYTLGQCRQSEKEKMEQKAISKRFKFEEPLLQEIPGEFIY

[22] = target: RAC-alpha serine/threonine-protein kinase (Homo sapiens) (UniProt P31749); assay: Inhibition of AKT1 (unknown origin) at 1 uM
[23] = target: Glycogen synthase kinase-3 alpha (Homo sapiens) (UniProt P49840); assay: Inhibition of GSK3 alpha (unknown origin) at 1 uM
Glycogen synthase kinase-3 alpha (Homo sapiens), sequence (P49840 2-483 limits assumed): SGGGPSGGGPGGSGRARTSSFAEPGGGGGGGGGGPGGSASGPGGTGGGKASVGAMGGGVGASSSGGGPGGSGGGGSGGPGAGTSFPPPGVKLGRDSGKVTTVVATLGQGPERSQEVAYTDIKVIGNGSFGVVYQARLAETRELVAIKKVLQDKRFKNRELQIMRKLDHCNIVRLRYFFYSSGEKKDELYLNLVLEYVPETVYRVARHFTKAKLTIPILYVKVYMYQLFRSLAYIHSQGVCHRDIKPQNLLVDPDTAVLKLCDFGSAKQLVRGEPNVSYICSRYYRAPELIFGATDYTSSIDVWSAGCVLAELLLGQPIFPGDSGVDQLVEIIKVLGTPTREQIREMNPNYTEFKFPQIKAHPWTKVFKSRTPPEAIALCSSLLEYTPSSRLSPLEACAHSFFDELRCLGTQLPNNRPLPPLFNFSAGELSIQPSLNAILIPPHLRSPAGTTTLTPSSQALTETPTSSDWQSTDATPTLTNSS

[24] = target: Serine/threonine-protein kinase Nek4 (Homo sapiens) (UniProt P51957); assay: Inhibition of NEK4 (unknown origin) at 1 uM
[25] = target: Epithelial discoidin domain-containing receptor 1 (Homo sapiens) (UniProt Q08345); assay: Inhibition of DDR1 (unknown origin) at 1 uM
[26] = target: Epidermal growth factor receptor (Homo sapiens) (UniProt P00533); assay: Inhibition of EGFR (unknown origin) at 1 uM
[27] = target: Inhibitor of nuclear factor kappa-B kinase subunit beta (Homo sapiens) (UniProt O14920); assay: Inhibition of IKKbeta (unknown origin) at 1 uM
[28] = target: Protein kinase C alpha type (Homo sapiens) (UniProt P17252); assay: Inhibition of PKC alpha (unknown origin) at 1 uM
[29] = target: Tyrosine-protein kinase TXK (Homo sapiens) (UniProt P42681); assay: Inhibition of TXK (unknown origin) at 1 uM
[30] = target: Tyrosine-protein kinase receptor TYRO3 (Homo sapiens) (UniProt Q06418); assay: Inhibition of Rse (unknown origin) at 1 uM
[31] = target: Ribosomal protein S6 kinase beta-1 (Homo sapiens) (UniProt P23443); assay: Inhibition of p70S6K (unknown origin) at 1 uM
[32] = target: Serine/threonine-protein kinase NLK (Homo sapiens) (UniProt Q9UBE8); assay: Inhibition of NLK (unknown origin) at 1 uM
[33] = target: Mast/stem cell growth factor receptor Kit (Homo sapiens) (UniProt P10721); assay: Inhibition of Kit (unknown origin) at 1 uM
[34] = target: PAS domain-containing serine/threonine-protein kinase (Homo sapiens) (UniProt Q96RG2); assay: Inhibition of PASK (unknown origin) at 1 uM
[35] = target: Serine/threonine-protein kinase PAK 6 (Homo sapiens) (UniProt Q9NQU5); assay: Inhibition of PAK6 (unknown origin) at 1 uM
Serine/threonine-protein kinase PAK 6 (Homo sapiens), sequence (Q9NQU5 whole entry, looked up): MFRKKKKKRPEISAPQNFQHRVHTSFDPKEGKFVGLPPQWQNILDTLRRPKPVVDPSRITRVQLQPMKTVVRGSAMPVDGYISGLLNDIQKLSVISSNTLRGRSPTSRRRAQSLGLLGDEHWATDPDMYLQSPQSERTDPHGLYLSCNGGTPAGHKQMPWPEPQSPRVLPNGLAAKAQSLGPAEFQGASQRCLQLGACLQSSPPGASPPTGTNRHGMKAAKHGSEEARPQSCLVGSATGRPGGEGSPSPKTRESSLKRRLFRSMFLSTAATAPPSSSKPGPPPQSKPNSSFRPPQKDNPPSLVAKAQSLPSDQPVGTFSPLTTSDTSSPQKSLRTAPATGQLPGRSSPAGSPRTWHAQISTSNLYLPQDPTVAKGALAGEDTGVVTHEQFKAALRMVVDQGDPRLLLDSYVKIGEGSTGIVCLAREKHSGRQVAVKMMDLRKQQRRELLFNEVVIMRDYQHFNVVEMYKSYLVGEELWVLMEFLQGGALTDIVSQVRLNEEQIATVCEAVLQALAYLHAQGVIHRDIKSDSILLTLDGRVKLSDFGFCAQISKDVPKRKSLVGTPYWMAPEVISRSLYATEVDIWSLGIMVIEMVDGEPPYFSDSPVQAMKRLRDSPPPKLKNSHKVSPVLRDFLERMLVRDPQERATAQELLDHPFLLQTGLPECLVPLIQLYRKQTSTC

[36] = target: Tyrosine-protein kinase Lck (Homo sapiens) (UniProt P06239); assay: Inhibition of LCK (unknown origin) at 1 uM
[37] = target: Insulin receptor (Homo sapiens) (UniProt P06213); assay: Inhibition of InsR (unknown origin) at 1 uM
[38] = target: Muscle, skeletal receptor tyrosine-protein kinase (Homo sapiens) (UniProt O15146); assay: Inhibition of MusK (unknown origin) at 1 uM
[39] = target: Dual specificity protein kinase CLK1 (Homo sapiens) (UniProt P49759); assay: Inhibition of CLK1 (unknown origin) at 1 uM
[40] = target: Mitogen-activated protein kinase kinase kinase 2 (Homo sapiens) (UniProt Q9Y2U5); assay: Inhibition of MEKK2 (unknown origin) at 1 uM
[41] = target: Mitogen-activated protein kinase 13 (Homo sapiens) (UniProt O15264); assay: Inhibition of p38 delta (unknown origin) at 1 uM
[42] = target: Ephrin type-A receptor 1 (Homo sapiens) (UniProt P21709); assay: Inhibition of EphA1 (unknown origin) at 1 uM
Ephrin type-A receptor 1 (Homo sapiens), sequence (P21709 whole entry): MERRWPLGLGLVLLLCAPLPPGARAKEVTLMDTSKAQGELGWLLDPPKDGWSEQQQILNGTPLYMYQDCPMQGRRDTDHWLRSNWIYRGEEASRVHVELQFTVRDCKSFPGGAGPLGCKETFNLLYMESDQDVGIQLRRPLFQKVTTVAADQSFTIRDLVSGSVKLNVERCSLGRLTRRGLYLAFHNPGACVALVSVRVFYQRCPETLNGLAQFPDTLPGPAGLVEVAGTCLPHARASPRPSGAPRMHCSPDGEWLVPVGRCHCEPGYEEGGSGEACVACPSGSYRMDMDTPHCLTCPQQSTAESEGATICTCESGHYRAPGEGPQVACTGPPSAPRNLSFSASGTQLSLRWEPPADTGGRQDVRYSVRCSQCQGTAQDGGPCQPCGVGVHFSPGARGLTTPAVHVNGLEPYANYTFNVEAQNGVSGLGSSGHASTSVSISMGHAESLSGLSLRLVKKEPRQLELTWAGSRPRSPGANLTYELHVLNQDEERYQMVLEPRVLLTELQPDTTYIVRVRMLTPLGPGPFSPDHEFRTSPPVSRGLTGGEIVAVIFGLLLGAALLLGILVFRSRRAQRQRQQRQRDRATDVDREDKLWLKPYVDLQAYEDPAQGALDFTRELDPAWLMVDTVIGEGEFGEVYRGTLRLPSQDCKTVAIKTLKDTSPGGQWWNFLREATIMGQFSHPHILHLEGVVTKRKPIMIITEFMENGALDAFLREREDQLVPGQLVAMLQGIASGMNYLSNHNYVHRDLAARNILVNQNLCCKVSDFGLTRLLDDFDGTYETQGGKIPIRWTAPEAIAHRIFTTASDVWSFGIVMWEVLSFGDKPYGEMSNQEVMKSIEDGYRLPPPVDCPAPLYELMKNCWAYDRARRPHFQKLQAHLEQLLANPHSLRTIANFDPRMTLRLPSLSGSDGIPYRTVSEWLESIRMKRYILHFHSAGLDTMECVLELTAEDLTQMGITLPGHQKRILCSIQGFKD

[43] = target: Serine/threonine-protein kinase Sgk3 (Homo sapiens) (UniProt Q96BR1); assay: Inhibition of SGK3 (unknown origin) at 1 uM

inhibition [1]: -1.1%
inhibition [2]: 38.3%
inhibition [3]: -1.1%
inhibition [4]: 3%
inhibition [5]: 2.9%
inhibition [6]: -2.2%
inhibition [7]: -5.4%
inhibition [8]: 0.6%
inhibition [9]: 0.4%
inhibition [11]: 4.5%
inhibition [12]: -3.9%
inhibition [13]: -2%
inhibition [14]: 0.7%
inhibition [15]: -2.1%
inhibition [16]: 6.4%
inhibition [17]: 3.4%
inhibition [18]: 7.2%
inhibition [19]: 9%
inhibition [20]: -2.2%
clearance (Canis familiaris): 14 mL/min/kg
inhibition [21]: 7.6%
inhibition [22]: 2.5%
inhibition [23]: 7.5%
inhibition [24]: 1%
inhibition [25]: 0.8%
inhibition [26]: -5.5%
inhibition [27]: 2.2%
inhibition [28]: -2.1%
inhibition [29]: -4.7%
inhibition [30]: 2.5%
inhibition [31]: -2.8%
inhibition [32]: -4.8%
inhibition [33]: 1.9%
inhibition [34]: 6.2%
inhibition [35]: 1.8%
inhibition [36]: 39.3%
inhibition [37]: 13.8%
inhibition [38]: 1.4%
inhibition [39]: 5%
inhibition [40]: 9.2%
inhibition [41]: 8.6%
inhibition [42]: 2.2%
inhibition [43]: -1.3%
SMILES: Cc1c(-c2cc(Nc3cc4n(n3)CCN(C)C4)c(=O)[nH]n2)ccc(F)c1NC(=O)c1cc2ccccc2s1
inhibition [10]: -2%
